For data set [1] the following is noted: cited from earlier work.
The test system of the next data set is MV-4-11 xenograft model. Put plainly: In vivo xenograft study, MV-4-11. Also noted: species or system BALB/cSlc-nu/nu mice. As to conditions: for TGI (tumor growth inhibition): intravenously every 4 days. Here is the method:
(§1) For evaluation of antitumor activity, MV-4-11 (5 × 10^6 cells) or PC-3 cells (2 × 10^6 cells) were injected subcutaneously in the inguinal region of 6-week-old male BALB/cSlc-nu/nu mice (Japan SLC, Inc., Shizuoka, Japan), with Matrigel (BD Biosciences, San Jose, CA, USA). When the average tumor volume (length × width^2 × 1/2) had reached 40 to 120 mm^3, animals were randomized into groups of seven mice for vehicle control group of MV-4-11 xenograft model or five mice for the other groups (day 1). Test compounds were injected into the tail vein every 4 days from day 1, with an administration volume of 10 ml/kg. Tumor volumes were measured 2 times per week and body weights of the mice were monitored on 2 or 3 times per week as an indicator of tolerability. On day 22 or 16, antitumor activity was evaluated by weighing tumor tissues. Tumor growth inhibition, TGI (%), was calculated according to formula (1 − T/C) × 100, where T and C are the mean tumor weights for the experimental and vehicle control groups, respectively. The differences between the mean tumor weights for comparing groups were analyzed using Dunnett’s test, where P < 0.05 was considered to be significant.

The next data set concerns PC-3 xenograft model. The experiment in a line: In vivo xenograft study, PC-3. The arrangement: species or system BALB/cSlc-nu/nu mice. As to conditions: for TGI (tumor growth inhibition): intravenously every 4 days. Here is the method:
as §1

Data set [2] addresses T1, Pim-1 (Homo sapiens, UniProt P11309).
T1 construct: purchased Life Technologies; Thermo Fisher Scientific Inc
Put plainly: In vitro Pim kinase activity assay (FRET-based Z'-LYTE), Pim-1. The format is biochemical. The conditions noted are these: ATP 400 µM; read-out: IC50 values for enzyme activities, Pim-1. On the procedure: (§2) The inhibition ratios of test compounds for Pim-1, 2 (Life Technologies; Thermo Fisher Scientific Inc., MA, United States), 3 (Merck KgaA), and FLT3 (Life Technologies; Thermo Fisher Scientific Inc., MA, United States) were determined using a modified FRET-based Z′-LYTE kinase assay kit (Invitrogen; Thermo Fisher Scientific Inc.). The Ser/Thr 7 peptide and Tyr-2 peptide were used as substrates for Pim kinases and FLT3, respectively. The reactions were carried out in a 384-well plate with a 10 µL reaction volume per well containing 1 µM substrates in 50 mM HEPES buffer with pH 7.5, 0.01% BRIJ-35, 10 mM MgCl2, 1 mM EGTA, and an appropriate amount of kinases (Pim-1: 0.03 μg/ml, Pim-2: 0.2 μg/ml, Pim-3: 0.2 μg/ml, FLT3: 0.1 μg/ml) with test compounds. The final reaction concentrations of ATP were 400, 5, 100, and 500 µM for Pim-1, 2, 3, and FLT3 respectively. After 1 h incubation, reactions were developed and terminated, and fluorescence ratios were calculated following the manufacturer’s protocol.

The next data set deals with T2, Pim-2 (Homo sapiens, UniProt Q9P1W9).
T2 construct: purchased Life Technologies; Thermo Fisher Scientific Inc
The experiment in a line: In vitro Pim kinase activity assay (FRET-based Z'-LYTE), Pim-2. The format is biochemical. The conditions noted are these: ATP 5 µM; read-out: IC50 values for enzyme activities, Pim-2. Here is the method:
as §2

The next data set concerns the target T3, Pim-3 (Homo sapiens, UniProt Q86V86).
T3 construct: purchased Merck KgaA
Put plainly: In vitro Pim kinase activity assay (FRET-based Z'-LYTE), Pim-3. The format is biochemical. As to conditions: ATP 100 µM; read-out: IC50 values for enzyme activities, Pim-3. On the procedure:
as §2

Data set [3] has as its target T1, Pim-1. Put plainly: Binding detection based on SPR platform (BIACORE T200). The conditions noted are these: 6.5, 13, 25, or 50 µM. Here is the method:
The interactions between test compounds and Pim-1 were detected by surface plasmon resonance platform BIACORE T200 (GE Healthcare Life Sciences, Buckinghamshire, England). Pim-1 was diluted to 20 μg/ml in 10 mM acetate buffer (pH 5.0), and then immobilized as a ligand in the N-hydroxysuccinimide/ethyl 3-(3-dimethylaminopropyl) carbodiimide-pre-activated CM5 sensor chip, following blocking by ethanolamine. Test compounds were diluted at 6.5, 13, 25, or 50 µM in a vehicle of 5% DMSO (v/v) in phosphate buffered saline (PBS). The dilutions were injected as analyte flow liquid phase with PBS containing 5% DMSO (v/v) as running buffer at a constant flow rate of 30 μL/min. A 2-min association time was set. The data were collected by Biacore Control Software. Kinetics and affinity parameters were evaluated with the Langmuir model (1:1) using BIA evaluation software.
(Surface plasmon resonance follows binding to a sensor surface in real time, without labels.)

The subject of data set [4] is phosphorylation level of 4E-BP in PC-3 tumors. The experiment in a line: Pharmacodynamics study in PC-3 xenograft tumors (phospho-4E-BP immunoblot). The format is in vivo, mice. The conditions noted are these: single dose 187.5 mg/kg. On the procedure:
(§3) Cells were plated overnight and then treated with test compounds for 4 hours. Then, the cells were lyzed in solubilization buffer [10 mM Tris-HCl (pH7.4), 0.1% (w/v) NP-40, 0.1% (w/v) sodium deoxycholate, 0.1% (w/v) SDS, 0.15 M NaCl, 1 mM EDTA, 10 µM aprotinin] with phosphatase inhibitor cocktails (Nakarai Tesque, Kyoto, Japan), and subjected to SDS-PAGE using 15% (w/v) gels under reducing conditions. The separated proteins were electrotransferred to Immobilon transfer membranes (Merck Millipore, Darmstadt, Germany). Then, each membrane was reacted with primary antibodies, which were subsequently complexed with appropriate horseradish peroxidase-conjugated secondary antibodies. Signals were detected using the ECL Western Blotting Detection System (GE Healthcare Life Sciences) and protein expression was quantified with a LAS-3000 Luminescent Image Analyzer (GE Healthcare Life Sciences). The protein bands were quantified using ImageQuant TL software (GE Healthcare Life Sciences).
Tumors were resected 1, 2, 6, or 24 h after injection and lyzed for immunoblot analysis.
A general note: In western blotting, separated proteins are transferred to a membrane and probed.

The target in another data set is T4, FLT3 (Homo sapiens, UniProt P36888).
T4 construct: purchased Life Technologies; Thermo Fisher Scientific Inc
T4 sequence (P36888 27-993): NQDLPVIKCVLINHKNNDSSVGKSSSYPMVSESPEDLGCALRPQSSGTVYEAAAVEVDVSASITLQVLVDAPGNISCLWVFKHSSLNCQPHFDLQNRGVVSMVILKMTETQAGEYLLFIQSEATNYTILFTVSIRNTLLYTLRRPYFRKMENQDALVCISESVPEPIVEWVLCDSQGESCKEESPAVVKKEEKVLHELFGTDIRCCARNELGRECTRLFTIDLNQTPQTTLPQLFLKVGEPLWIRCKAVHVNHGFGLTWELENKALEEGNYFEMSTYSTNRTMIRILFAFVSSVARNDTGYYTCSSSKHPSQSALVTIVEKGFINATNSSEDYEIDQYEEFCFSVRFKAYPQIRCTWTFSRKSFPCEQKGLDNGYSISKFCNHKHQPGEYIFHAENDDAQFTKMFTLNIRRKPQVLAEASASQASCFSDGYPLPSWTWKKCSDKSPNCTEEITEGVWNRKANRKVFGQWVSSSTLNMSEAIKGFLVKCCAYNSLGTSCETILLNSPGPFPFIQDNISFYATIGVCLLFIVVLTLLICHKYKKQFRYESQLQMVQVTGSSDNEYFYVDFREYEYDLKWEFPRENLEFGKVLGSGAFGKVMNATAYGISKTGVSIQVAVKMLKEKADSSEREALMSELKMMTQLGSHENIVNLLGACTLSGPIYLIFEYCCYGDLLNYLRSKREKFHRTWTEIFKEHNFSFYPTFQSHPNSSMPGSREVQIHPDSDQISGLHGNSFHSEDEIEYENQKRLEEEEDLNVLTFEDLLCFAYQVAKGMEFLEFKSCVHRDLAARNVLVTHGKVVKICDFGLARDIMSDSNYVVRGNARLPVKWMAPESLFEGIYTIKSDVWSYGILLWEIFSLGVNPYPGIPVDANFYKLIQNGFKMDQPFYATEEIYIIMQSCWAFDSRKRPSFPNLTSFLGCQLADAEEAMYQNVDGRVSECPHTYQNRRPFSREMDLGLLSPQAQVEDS
Put plainly: FLT3 kinase activity assay (FRET-based Z'-LYTE). The format is biochemical. The conditions noted are these: ATP 500 µM; read-out: IC50 against FLT3 kinase. On the procedure: as §2

The test system of a further data set is cancer cell lines. The experiment in a line: Cytotoxicity assay for cell survival (cancer cell proliferation). The format is cell-based. As to conditions: 96 hours; read-out: IC50 for proliferation of a broad spectrum of cancer cell lines (range). An excerpt:
We obtained colon cancer HCT116 and HT-29 cells, prostate cancer PC-3, DU145, and LNCaP cells, lung cancer NCI-H460 and NCI-H522 cells, breast cancer MDA-MB-231 cells, AML MV-4-11 cells, and chronic myeloid leukemia (CML) K-562, MEG-01, and KU812 cells from American Type Culture Collection (Manassas, VA, United States); stomach cancer MKN45 cells from the Health Science Research Resources Bank (Osaka, Japan); pancreatic cancer AsPC-1 and MIA PaCa-2, and lung cancer A549 cells from DS Pharma Biomedical (Osaka, Japan). All cell lines were cultured in RPMI1640 medium (Life Technologies; Thermo Fisher Scientific Inc.) with 10% (v/v) fetal bovine serum (FBS; Sigma-Aldrich; Merck KgaA) at 37°C in 5% CO2.
Cells were seeded in 96-well plates and test compounds were added to the cultures at several concentrations.

The test system of another data set is PC-3. Put plainly: Immunoblot analysis of phosphorylation of Pim kinase substrates, PC-3. The format is cell-based. As to conditions: PC-3, 4 h. On the procedure:
as §3

Setting [5] is: experiment not completed (data not shown).

Each structure is given as a SMILES string. Like-named read-outs stand apart in the source and are kept apart here.

T1 sequence (P11309 whole entry): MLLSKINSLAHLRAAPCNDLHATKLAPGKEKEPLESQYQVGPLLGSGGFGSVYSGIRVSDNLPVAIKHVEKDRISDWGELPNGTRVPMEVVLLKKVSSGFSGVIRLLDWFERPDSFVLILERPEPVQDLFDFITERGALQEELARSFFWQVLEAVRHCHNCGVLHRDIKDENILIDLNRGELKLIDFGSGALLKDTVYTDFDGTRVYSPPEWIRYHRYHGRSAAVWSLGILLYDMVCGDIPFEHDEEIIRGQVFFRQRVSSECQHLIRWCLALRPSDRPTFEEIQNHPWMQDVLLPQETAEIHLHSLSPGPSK
T2 sequence (Q9P1W9 whole entry): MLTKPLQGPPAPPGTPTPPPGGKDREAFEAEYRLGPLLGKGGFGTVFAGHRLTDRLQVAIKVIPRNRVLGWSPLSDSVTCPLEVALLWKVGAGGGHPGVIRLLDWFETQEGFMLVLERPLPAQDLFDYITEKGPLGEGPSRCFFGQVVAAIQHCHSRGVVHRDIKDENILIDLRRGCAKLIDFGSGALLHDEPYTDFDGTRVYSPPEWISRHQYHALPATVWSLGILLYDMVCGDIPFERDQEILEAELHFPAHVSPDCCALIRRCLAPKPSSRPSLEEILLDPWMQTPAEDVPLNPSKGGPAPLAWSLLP

In the case of `N[C@@H]1CCCN(c2c(/C=C3\SC(=O)NC3=O)cccc2-c2ccccc2)C1` [AZD1208], the “Reason for termination of clinical study” value in [1] (ref NCT01489722) was “lack of clinical response”.

As to `CN1CCC(CNc2ccc3ncc(-c4cccc(OC(F)(F)F)c4)n3n2)CC1` [SGI-1776], the “Reason for termination of clinical study” value in data set [1] (ref NCT00848601) was “dose-limiting toxicity”.

With `CN1CCN(c2ccc(-c3cnc4ccc(/C=C5\SC(=O)NC5=O)nn34)cc2)CC1.CS(=O)(=O)O` [YPC-21440 MsOH, (Z)-5-([3-{4-(4-methylpiperazin-1-yl)phenyl}imidazo[1,2-b]pyridazin-6-yl]methylene)thiazolidine-2,4-dione methanesulfonate], the “TGI (tumor growth inhibition)” value in the data set on MV-4-11 xenograft model (62.5 mg/kg/dose) is recorded as 26%. In the data set on MV-4-11 xenograft model (125 mg/kg/dose), the “Body weight decrease (as much as) compared with day 1” value is given as 5.2 ± 10% and the “TGI (tumor growth inhibition)” value amounted to 60%. In addition, in the data set on MV-4-11 xenograft model (187.5 mg/kg/dose), the “Body weight decrease (as much as) compared with day 1” value was 7.1 ± 21% and the “TGI (tumor growth inhibition)” value is recorded as 77%. For the same molecule, in the data set with PC-3 xenograft model (setting [5]), the Body weight loss result is reported as “serious body weight loss” and the Tumor growth entry is “tended to be suppressed”.

As for `CCCCCN1CCN(c2ccc(-c3cnc4ccc(/C=C5\SC(=O)NC5=O)nn34)cc2F)CC1` [YPC-21813, (Z)-5-([3-{4-(4-pentylpiperazin-1-yl)-3-fluorophenyl}imidazo[1,2-b]pyridazin-6-yl]methylene)thiazolidine-2,4-dione], the IC50 stood at 430 nM at Pim-1 [2], 490 nM at Pim-2 and 360 nM at Pim-3.

As to `CCCCCCCCCCN1CCN(c2ccc(-c3cnc4ccc(/C=C5\SC(=O)NC5=O)nn34)cc2F)CC1` [YPC-21814, (Z)-5-([3-{4-(4-decylpiperazin-1-yl)-3-fluorophenyl}imidazo[1,2-b]pyridazin-6-yl]methylene)thiazolidine-2,4-dione], the IC50 at Pim-1 [2], on Pim-2 and on Pim-3 was above 1800 nM throughout. The “Binding to Pim-1 by SPR (Biacore)” value on Pim-1 [3] was “did not bind to Pim-1”.

As for `CCN1CCN(c2ccc(-c3cnc4ccc(/C=C5\SC(=O)NC5=O)nn34)cc2F)CC1.CS(=O)(=O)O` [YPC-21817 MsOH, (Z)-5-([3-{4-(4-ethylpiperazin-1-yl)-3-fluorophenyl}imidazo[1,2-b]pyridazin-6-yl]methylene)thiazolidine-2,4-dione methanesulfonate], the “TGI (tumor growth inhibition)” value with MV-4-11 xenograft model (62.5 mg/kg/dose) is reported as 20%; in the data set with MV-4-11 xenograft model (125 mg/kg/dose), 39%; in the data set with MV-4-11 xenograft model (187.5 mg/kg/dose) it was 70%; with PC-3 xenograft model (62.5 mg/kg/dose), 0.92%; in the data set on PC-3 xenograft model (125 mg/kg/dose) it was 8.4%; in the data set on PC-3 xenograft model (187.5 mg/kg/dose) it was 48%. For the same molecule, the “Serious decrease in body weight” value in the data set on MV-4-11 xenograft model (evaluation period) and with PC-3 xenograft model (evaluation period) was “not observed” each time. Besides, the “Phosphorylation level of 4E-BP in tumors” value was “signigficantly decreased” in data set [4] (1, 2, and 6 hours after administration); “almost completely recovered” in [4] (24 hours after administration).

For `CCN1CCN(c2ccc(-c3cnc4ccc(/C=C5\SC(=O)NC5=O)nn34)cc2F)CC1` [YPC-21817, (Z)-5-([3-{4-(4-ethylpiperazin-1-yl)-3-fluorophenyl}imidazo[1,2-b]pyridazin-6-yl]methylene)thiazolidine-2,4-dione], the IC50 was 2000 nM on FLT3 and 24 to 650 nM in the data set with cancer cell lines. The “Phosphorylation levels of Bad, 4EBP, and p21” value in the data set with PC-3 is given as “decreased”.

For the molecule `CN1CCN(c2ccc(-c3cnc4ccc(/C=C5\SC(=O)NC5=O)nn34)cc2C(C)(C)C)CC1` [YPC-21867, (Z)-5-([3-{3-(tert-butyl)-4-(4-methylpiperazin-1-yl)phenyl}imidazo[1,2-b]pyridazin-6-yl]methylene)thiazolidine-2,4-dione], the IC50 on Pim-1 [2] is 120 nM; on Pim-2, 190 nM; at Pim-3 it was 540 nM.

The record behind these values is PMC8126654, “Novel Pan-Pim Kinase Inhibitors With Imidazopyridazine and Thiazolidinedione Structure Exert Potent Antitumor Activities” (Frontiers in Pharmacology, 2021).
